According to patent US11124489B2, “EPAC antagonists” (priority 2017, dated 2021):
Where two headings read alike, the source gives them in different places.

Key:
EPAC1 [1] = molecular target: T1, EPAC1 (Homo sapiens (Human), UniProt O95398); assay: biochemical
EPAC2 [2] = molecular target: T2, EPAC2 (Mus musculus (Mouse), UniProt Q9EQZ6); assay: biochemical; conditions: Rap1b-bGDP EPAC2 IC50, apparent IC50, EPAC2 GEF activity, 20 μM cAMP
Description: (§3) In Vitro Evaluation of EPAC2 Inhibition.
(§4) In vitro EPAC GEF activity was acquired as previously described (Zhu et al., Sci. Rep. (2015) 5:9344). Briefly, the assay was performed using 500 nM Rap1b-BODIPY-GDP and 200 nM EPAC proteins in buffer containing 50 mM Tris-HCl pH 7.5, 50 mM NaCl, 5 mM MgCl2, 1 mM DTT, 50 mM GDP and the indicated concentrations of test compounds at room temperature using half-area 96-well plates (Corning Costar 3915). The exchange reaction was monitored using a Spectramax M2 Plate Reader (Molecular Devices) with the excitation/emission wavelengths set at 485/515 nm. The reaction rate constant (kobs) was determined by globally fitting the experimental data to a single exponential equation.

EPAC2 [3] = conditions: read-out: IC50 against EPAC2
Source text: (§1) Given the physiological and pathophysiological significance of EPAC proteins, developing pharmacological EPAC modulators has attracted more and more attention. Most EPAC agonists are derivatives of cAMP, while non-cyclic nucleotide ligands usually display EPAC inhibitory activities. Cheng group developed a sensitive and robust fluorescence-based high throughput (HTS) assay, (Tsalkova et al., PloS one, (2012) 7:e30441) and discovered a series of non-cyclic nucleotide EPAC inhibitors (Tsalkova et al., Proc. Natl. Acad. Sci. U.S.A., (2012) 109:18613-18).

EPAC1 [4] = molecular target: T1, EPAC1; conditions: at 100 μM
Source text: as §1

EPAC2 [5] = molecular target: T2, EPAC2; conditions: for Relative GEF activity, EPAC2-mediated Rap1b-bGDP exchange: in the presence of 20 μM cAMP, figure; for IC50: read-out: Rap1b-bGDP EPAC2 IC50, apparent IC50, EPAC2 GEF activity, 20 μM cAMP
Description: as §3, §4

EPAC1 [6] = molecular target: T1, EPAC1; conditions: for IC50: read-out: Rap 1b-bGDP EPAC1 IC50
[7] = mice, single IP injection 10 mg/kg
Description: In vivo pharmacokinetic studies were performed in four week old female C57BL6/N mice.

R. australia [8] = conditions: 10 mg/kg IP daily, lethal dose of R. australia
Description: WT C57BL/6 mice were treated with vehicle or ESI-09 (10 mg/kg, IP) daily. Five days after the treatment, mice were challenged with lethal dose of R. australia and continued ESI-09 daily treatment.

EPAC1 [9] = molecular target: T1, EPAC1; conditions: read-out: IC50 in inhibiting EPAC1; reference compound, Zhu et al., Sci. Rep. (2015); cited from earlier work
leptin = conditions: wild-type mice, 50 mg/kg oral gavage for 3 weeks, relative to vehicle
Description: (§2) To explore the feasibility of increasing leptin sensitivity by targeting Epac1 using small molecules, organotypic brain slice cultures were prepared from 11-day old wild-type C57BL/6 mice. After 7 days ex vivo culture, treatment of the brain tissue with the Epac specific antagonist ESI-09 led to an enhanced pSTAT3 Y705 level both at the basal state and in response to leptin stimulation. […] These pharmacological data are in agreement with results obtained using Epac1 KO mice and further confirm that inhibition of Epac1 enhances leptin signaling in the hypothalamus. To further investigate the therapeutic potential of this small molecule, wild-type mice were with ESI-09 (50 mg/kg) or vehicle (corn oil) by oral gavage for 3 weeks.

pSTAT3 Y705 = conditions: brain slices, basal state and in response to leptin stimulation
Description: as §2

R. australia [10] = conditions: HUVEC cells, vs vehicle
[11] = tested on: OVA-specific IgG1 antibodies; conditions: mouse, in vivo
[12] = Rap 1b-bGDP EPAC1 IC50, apparent IC50, EPAC1 GEF activity, 20 μM cAMP
[13] = apparent IC50, EPAC1 GEF activity, 20 μM cAMP

Compound | IC50 (EPAC1 [1]; [12]) [µM] | IC50 (EPAC2 [2]) [nM] | IC50 (EPAC1 [1]; Rap 1b-bGDP EPAC1 IC50) [µM] | further results
N#CC(=NNc1cc(Cl)cc(C(F)(F)F)c1)C(=O)c1noc2ccccc12 [Compound 31, 2-(Benzo[d]isoxazol-3-yl)-N-(3-chloro-5-(trifluoromethyl)phenyl)-2-oxoacetohydrazonoyl cyanide] | 4.6 ± 0.8 | 2200 ± 200 |  | 
Cc1cc(C)c(Nc2ccc(Cl)c(C(F)(F)F)c2)c(C)c1 [MAY0132] |  |  |  | IC50 (EPAC2 [3]): 400 nM; inhibition against EPAC1 (EPAC1 [4]): no significant inhibition
CC(C)(C)c1ccc(-c2cc(C(=O)C(C#N)=NNc3ccc(C(F)(F)F)c(Cl)c3)no2)cc1 [Compound 9, N-(3-Chloro-4-(trifluoromethyl)phenyl)-2-oxo-2-(5-(4-(tert-butyl)phenyl)isoxazol-3-yl)acetohydrazonoyl cyanide] | 9 ± 3.9 |  |  | 
N#C/C(=N\Nc1cc(Cl)cc(Cl)c1)C(=O)c1ccc(Cl)cc1 [ZL0491, (E)-2-(4-chlorophenyl)-N-(3,5-dichlorophenyl)-2-oxoacetohydrazonoyl cyanide] | > 300 |  |  | 
N#CC(=NNc1cc(F)cc(Cl)c1)C(=O)c1noc2ccccc12 [Compound 34, 2-(Benzo[d]isoxazol-3-yl)-N-(3-chloro-5-fluorophenyl)-2-oxoacetohydrazonoyl cyanide] |  |  | 18.9 ± 4.9 | 
N#CC(=NNc1ccc(Cl)c(C(F)(F)F)c1)C(=O)c1cc(-c2ccco2)on1 [Compound 27, N-(4-Chloro-3-(trifluoromethyl)phenyl)-2-(5-(furan-2-yl)isoxazol-3-yl)-2-oxoacetohydrazonoyl cyanide] | 4.2 ± 0.9 | 2300 ± 200 |  | Relative GEF activity, EPAC2-mediated Rap1b-bGDP exchange (EPAC2 [5]): Dose-dependent inhibition
CC(C)(C)c1ccc(-c2cc(C(=O)C(C#N)=NNc3cc(C(F)(F)F)cc(C(F)(F)F)c3)no2)cc1 [Compound 11, N-(3,5-Bis(trifluoromethyl)phenyl)-2-(5-(4-(tert-butyl)phenyl)isoxazol-3-yl)-2-oxoacetohydrazonoyl cyanide] | 11.9 ± 6 |  |  | 
N#CC(=NNc1cc(Cl)cc(C(F)(F)F)c1)C(=O)c1cc(-c2ccco2)on1 [Compound 26, N-(3-Chloro-5-(trifluoromethyl)phenyl)-2-(5-(furan-2-yl)isoxazol-3-yl)-2-oxoacetohydrazonoyl cyanide] |  | 2200 ± 300 | 3.6 ± 0.2 | Rap 1b-bGDP EPAC1 IC50 (EPAC1 [6]): low micromolar range; Relative GEF activity, EPAC1-mediated Rap1b-bGDP exchange (EPAC1 [6]): Dose-dependent inhibition
N#CC(=NNc1cc(Cl)cc(C(F)(F)F)c1)C(=O)c1cc(-c2ccccc2)on1 [Compound 13, N′-(3-Chloro-5-(trifluoromethyl)phenyl)-2-oxo-2-(5-phenylisoxazol-3 yl)acetohydrazonoyl cyanide] |  |  | 9.5 ± 1.2 | 
COc1ccc(-c2cc(C(=O)C(C#N)=NNc3cccc(Cl)c3)no2)cc1 [Compound 22, N-(3-Chlorophenyl)-2-(5-(4-methoxyphenyl)isoxazol-3-yl)-2-oxoacetohydrazonoyl cyanide] |  |  | 11.4 ± 2.8 | Relative GEF activity, EPAC1-mediated Rap1b-bGDP exchange (EPAC1 [6]): Dose-dependent inhibition
N#CC(=NNc1ccc(Cl)c(C(F)(F)F)c1)C(=O)c1cc(-c2ccc(Cl)cc2)on1 [Compound 20, N-(4-Chloro-3-(trifluoromethyl)phenyl)-2-oxo-2-(5-(4-chlorophenyl)isoxazol-3-yl)acetohydrazonoyl cyanide] |  |  | 7.8 ± 2.1 | 
CC(C)(C)c1ccc(-c2cc(C(=O)C(C#N)=NNc3ccc(Cl)c(C(F)(F)F)c3)no2)cc1 [Compound 10, N-(4-Chloro-3-(trifluoromethyl)phenyl)-2-oxo-2-(5-(4-(tert-butyl)phenyl)isoxazol-3-yl)acetohydrazonoyl cyanide] | 7.3 | 2200 ± 300 |  | Relative GEF activity, EPAC2-mediated Rap1b-bGDP exchange (EPAC2 [5]): Dose-dependent inhibition; Rap 1b-bGDP EPAC1 IC50 (EPAC1 [6]; [13]): low micromolar range
COc1ccc(C(=O)/C(C#N)=N/Nc2cc(Cl)cc(Cl)c2)cc1OC [ZL0631, (E)-N-(3,5-dichlorophenyl)-2-(3,4-dimethoxyphenyl)-2-oxoacetohydrazonoyl cyanide] | > 300 |  |  | 
N#CC(=NNc1cc(C(F)(F)F)cc(C(F)(F)F)c1)C(=O)c1cc(-c2ccccc2)on1 [Compound 15, N-(3,5-Bis(trifluoromethyl)phenyl)-2-oxo-2-(5-phenylisoxazol-3-yl)acetohydrazonoyl cyanide] |  | 3300 ± 800 | 7.2 ± 0.7 | 
N#CC(=NNc1ccc(F)c(Cl)c1)C(=O)c1noc2ccccc12 [Compound 35, 2-(Benzo[d]isoxazol-3-yl)-N-(3-chloro-4-fluorophenyl)-2-oxoacetohydrazonoyl cyanide] |  |  | 8.5 ± 3.5 | 
N#CC(=NNc1cc(C(F)(F)F)cc(C(F)(F)F)c1)C(=O)c1noc2ccccc12 [Compound 36, 2-(Benzo[d]isoxazol-3-yl)-N-(3,5-bis(trifluoromethyl)phenyl)-2-oxoacetohydrazonoyl cyanide] | 6.7 ± 0.7 |  |  | 
COc1ccc(-c2cc(C(=O)C(C#N)=NNc3ccc(Cl)c(C(F)(F)F)c3)no2)cc1 [Compound 23, N-(4-Chloro-3-(trifluoromethyl)phenyl)-2-oxo-2-(5-(4-methoxyphenyl)isoxazol-3-yl)acetohydrazonoyl cyanide] | < 8 | 4500 ± 1000 |  | 
N#CC(NNc1ccc(C(F)(F)F)c(Cl)c1)C(=O)c1cc(-c2ccccc2)on1 (stereo not shown) [Compound 17b] |  |  |  | Rap 1b-bGDP EPAC1 IC50 (EPAC1 [6]): low micromolar range; IC50 (EPAC1 [6]): 5.1 ± 0.3 µM
N#CC(=NNc1ccc(Cl)c(C(F)(F)F)c1)C(=O)c1noc2ccccc12 [Compound 33, 2-(Benzo[d]isoxazol-3-yl)-N-(4-chloro-3-(trifluoromethyl)phenyl)-2-oxoacetohydrazonoyl cyanide] | 2.7 ± 0.3 | 1900 |  | Relative GEF activity, EPAC2-mediated Rap1b-bGDP exchange (EPAC2 [5]): Dose-dependent inhibition; Rap 1b-bGDP EPAC1 IC50 (EPAC1 [6]; [13]): low micromolar range; Relative GEF activity, EPAC1-mediated Rap1b-bGDP exchange (EPAC1 [6]; in the presence of 20 μM cAMP, figure): Dose-dependent inhibition
N#CC(=NNc1ccc(C(F)(F)F)c(Cl)c1)C(=O)c1noc2ccccc12 [Compound 32, 2-(Benzo[d]isoxazol-3-yl)-N-(3-chloro-4-(trifluoromethyl)phenyl)-2-oxoacetohydrazonoyl cyanide] | 3 ± 0.3 | 2200 ± 400 |  | Rap 1b-bGDP EPAC1 IC50 (EPAC1 [6]; [13]): low micromolar range
CC(C)(C)c1cc(C(=O)/C(C#N)=N/Nc2cccc(Cl)c2)no1 [ESI-09] |  |  |  | fold more potent on EPAC2 inhibition than on EPAC1 (EPAC2 [5]; EPAC2 vs EPAC1): 2.5 fold; Relative GEF activity, EPAC2-mediated Rap1b-bGDP exchange (EPAC2 [5]): Dose-dependent inhibition; IC50 (EPAC2 [5]): 4.4 µM; half-life [7]: 3.5 h; maximal blood level [7]: 42,520 ng/ml; time of maximal blood level [7]: 0.5 h; share of treatment group showing sign of sickness (R. australia [8]): 10%; IC50 (EPAC1 [9]): 10.8 µM; Plasma leptin (leptin): significantly reduced; pSTAT3 Y705 level (pSTAT3 Y705): enhanced; number of intracellular R. australia (R. australia [10]): dramatically reduced; level of serum OVA-specific IgG1 antibodies [11]: significantly higher; Relative GEF activity, EPAC1-mediated Rap1b-bGDP exchange (EPAC1 [6]): Dose-dependent inhibition; IC50 (EPAC1 [6]): 10.8 ± 1.6 µM
CC(C)(C)c1ccc(-c2cc(C(=O)C(C#N)=NNc3cccc(Cl)c3)no2)cc1 [Compound 7, N-(3-Chlorophenyl)-2-(5-(4-(tert-butyl)phenyl)isoxazol-3-yl)-2-oxoacetohydrazonoyl cyanide] |  |  | 8.6 | 
N#C/C(=N\Nc1cc(Cl)cc(Cl)c1)C(=O)c1cccc(Cl)c1 [ZL0546, (E)-2-(3-chlorophenyl)-N-(3,5-dichlorophenyl)-2-oxoacetohydrazonoyl cyanide] | > 300 |  |  | 
N#CC(=NNc1cccc(Cl)c1)C(=O)c1noc2ccccc12 [Compound 30, 2-(Benzo[d]isoxazol-3-yl)-N-(3-chlorophenyl)-2-oxoacetohydrazonoyl cyanide] |  |  | 13.2 | 
